Laboratory results reported in patent US5126057A, “Disinfecting with N,N'-dihaloimidazolidin-4-ones” (Auburn Research Foundation, priority 1991, dated 1992).
Like-named read-outs stand apart in the source and are kept apart here. Each block holds one molecule with its values, some of them ahead of it.

What was measured:
[1] = cited from earlier work
[2] = Formation of N-halogenated imidazolidin-4-ones in situ (loss of free chlorine, DPD/FAS); format: physicochemical; conditions: for reaction with free chlorine: pH 7.0, 24°±1° C.
Procedure: An aqueous solution containing 50.0 milligrams (3.52×10^-4 moles) of 2,2,5,5-tetramethylimidazolidin-4-one synthesized as in example 2 in 50.0 milliliters of 0.05 molar sodium phosphate buffer (pH 7.0) was prepared. The buffer solution had been made halogen demand-free by chlorination with 3 milligrams per liter total chlorine from sodium hypochlorite followed by exposure to direct sunlight for two days until no titratable chlorine remained. A halogen demand-free solution of free chlorine buffered to pH 7.0 was prepared by bubbling chlorine gas into a flask containing the demand-free buffered water. Then 19 milliliters of the solution containing 1.31 grams per liter of free chlorine (7.02×10^-4 moles of positive halogen) was added to the solution containing the 2,2,5,5-tetramethylimidazolidin-4-one at ambient temperature (24°±1° C.) while stirring.
The reaction rate for formation of 1,3-dichloro-2,2,5,5-tetramethylimidazolidin-4-one and/or 1-chloro-2,2,5,5-tetramethylimidazolidin-4-one in situ was then followed kinetically by observing the loss of free chlorine concentration from the reaction mixture as a function of time. The concentration of free chlorine was monitored by withdrawing aliquots from the mixture periodically and titrating them by the DPD/FAS (N,N-diethyl-p-phenylenediamine/ferrous ammonium sulfate) method as described in "Standard Methods for the Examination of Water and Wastewater, 16th edition, American Public Health Association, Washington, D. C., 1985, pp. 306-309. The moles of free chlorine present in the reaction mixture declined from 7.02×10^-4 at the time of mixing to 4.45×10^-5 after only 48 seconds representing 94% reaction. Then further declination of free chlorine occurred to 3.63×10^-5 moles after 2.87 minutes, 3.48×10^-5 moles after 6.07 minutes, and 3.32×10^-5 moles after 114.6 minutes. Thus after 114.6 minutes 95% of the reaction had occurred. At this time 1.76×10^-5 additional moles of 2,2,5,5-tetramethylimidazolidin-4-one was added, and the concentration of free chlorine declined to zero by 140 minutes total elapsed time.

[3] = Stability of unhalogenated 2,2,5,5-tetramethylimidazolidin-4-one in water exposed to direct sunlight; format: physicochemical
Procedure: A solution containing 142 milligrams (1.00×10^-3 moles) of 2,2,5,5-tetramethylimidazolidin-4-one (Compound 6) in 1.0 liter of demand-free water buffered to pH 7.0 was prepared. 100 milliliter samples (1.00×10^-4 moles of Compound 6) of this solution were placed in each of five 100 milliliter volumetric flasks. The flasks were sealed with ground glass stoppers and placed in direct sunlight on the roof of the chemistry building at Auburn University during the period Jul. 6, 1989 to Aug. 2, 1989. No effort was made to control the temperature in this experiment; it was typically 33° C. during this period. […]
After allowing the reaction of Compound 6 with free chlorine to form a mixture of 1,3-dichloro-2,2,5,5-tetramethylimidazolidin-4-one (Compound 1) and 1-chloro-2,2,5,5-tetramethylimidazolidin-4-one (Compound 3) to proceed with stirring over a period of 1 hour, aliquots were analyzed for total and free chlorine using the DPD-FAS procedure mentioned in example 8. The combined chlorine concentration was assumed to be the difference between the determined total and free chlorine concentrations, and to represent the amounts of compounds 1 and 3 forming during the reaction.

Structure (SMILES): CC1(C)COC(=O)N1Cl [3-chloro-4,4-dimethyl-2-oxazolidinone]
hydrolysis equilibrium constant ([1]; reported by Williams, Elder and Worley, 1988): 2.3×10^-9

reaction with free chlorine ([2]; 48 seconds): 94%
reaction with free chlorine ([2]; 114.6 minutes): 95%
time for in situ formation of halogenated imidazolidin-4-ones ([2]; free chlorine added to pH 7.0 demand-free water): less than 1 minute
Structure (SMILES): CC1(C)NC(=O)C(C)(C)N1 [2,2,5,5-tetramethylimidazolidin-4-one]

variation of combined chlorine concentration ([3]; 4 weeks direct sunlight, DFW pH 7.0, typically 33° C., then reacted with free chlorine): ≤ 6%
time for which stable in direct sunlight ([3]; DFW, pH 7.0, direct sunlight): at least 4 weeks
Structure (SMILES): CC1(C)NC(=O)C(C)(C)N1 [Compound 6, 2,2,5,5-tetramethylimidazolidin-4-one]

Structure (SMILES): O=c1n(Cl)c(=O)n(Cl)c(=O)n1Cl [trichloroisocyanuric acid]
hydrolysis equilibrium constant ([1]; reported by G. D. Nelson, Kirk-Othmer 1979): 1.6×10^-4
